# Target: T1, AlaRS^R329H (Homo sapiens, UniProt P49588, R329H)
# T1 construct: made in house; host or cells: E. coli BL21 (DE3), pET-21a
# T1 sequence (P49588 1-968 R329H): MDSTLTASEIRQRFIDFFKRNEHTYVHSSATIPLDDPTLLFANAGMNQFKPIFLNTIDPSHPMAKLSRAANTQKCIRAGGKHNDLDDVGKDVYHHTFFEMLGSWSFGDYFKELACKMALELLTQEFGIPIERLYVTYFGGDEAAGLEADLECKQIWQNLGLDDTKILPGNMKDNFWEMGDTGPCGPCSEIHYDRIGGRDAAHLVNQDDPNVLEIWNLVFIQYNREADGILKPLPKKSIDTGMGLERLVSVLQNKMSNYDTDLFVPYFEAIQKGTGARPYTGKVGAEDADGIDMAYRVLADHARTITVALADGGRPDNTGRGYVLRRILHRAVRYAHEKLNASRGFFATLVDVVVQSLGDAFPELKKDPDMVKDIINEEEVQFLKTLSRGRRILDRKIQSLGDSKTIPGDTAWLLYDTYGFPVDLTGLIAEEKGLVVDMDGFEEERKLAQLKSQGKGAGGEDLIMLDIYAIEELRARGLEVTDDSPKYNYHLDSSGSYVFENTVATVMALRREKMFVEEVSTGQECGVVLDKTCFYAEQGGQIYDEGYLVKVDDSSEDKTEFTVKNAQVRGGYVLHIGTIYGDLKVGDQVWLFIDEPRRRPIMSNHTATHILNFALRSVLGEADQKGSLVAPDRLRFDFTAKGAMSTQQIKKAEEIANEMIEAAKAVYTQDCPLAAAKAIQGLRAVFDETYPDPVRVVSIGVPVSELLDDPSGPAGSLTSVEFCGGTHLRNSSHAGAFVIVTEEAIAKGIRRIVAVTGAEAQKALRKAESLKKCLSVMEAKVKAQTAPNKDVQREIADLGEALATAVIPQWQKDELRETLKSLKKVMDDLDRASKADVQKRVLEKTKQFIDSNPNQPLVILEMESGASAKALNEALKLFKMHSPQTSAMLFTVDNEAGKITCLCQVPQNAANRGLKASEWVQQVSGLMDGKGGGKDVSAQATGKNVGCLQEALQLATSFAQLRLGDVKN
# Test: ATP consumption assay (enzyme inhibition)
# Type: biochemical
# Settings: 1 μM AlaRS^R329H at 20 μM compounds; vs DMSO control
# Protocol: We further investigated the effects of the four small molecules on the enzymatic activity of the AlaRS^R329H protein using an ATP consumption assay. All four compounds affected enzymatic activity to varying degrees. […] The ATP consumption assay was used to evaluate the enzymatic inhibitory activity of the compounds. A 30 μL reaction mixture, containing 1 μM AlaRS mutants, 25 μM ATP, 50 μM L-alanine, 30 mM HEPES (pH 7.5), 150 mM NaCl, 30 mM KCl, 40 mM MgCl2, 0.1% BSA, and varying concentrations of Tanshinone I, was incubated at room temperature for 15 min. After incubation, 10 μL of the mixture was transferred to a 384-well microplate, and AlaRS mutant activity was measured by adding 10 μL of the ATP Assay Kit (#S0026, Beyotime, Shanghai, China). Luminescence was recorded using a Synergy HTX multimode microplate reader (BioTek Inc., Winooski, VT, USA). The inhibitory rate was calculated from three independent assays to ensure the accurate assessment of Tanshinone I’s inhibitory activity. The experiment was repeated three times.
smiles,measurement,value
Cc1coc2c1C(=O)C(=O)c1c-2ccc2c(C)cccc12 [Tanshinone I],Relative Activity (relative enzyme activity of the first step),26.2%
